In general, IC50 refers to the point on the concentration scale where inhibition reaches its midpoint.

The subject of this assay is A549 human lung epithelium cell line. The assay is described as follows: RANTES production in response to TNF-α from A549 cells. The class given is cell-based. The following applies: Homo sapiens, A549, A549 cells, 100 ng/ml TNF-α, read-out: Cellular activity grade (A549) (Cellular IC50). In outline: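 RANTES released into supernatant was measured by DELFIA-type sandwich immunoassay, Eu-labelled detection antibody, 340 nm excitation/615 nm emission, recombinant RANTES standard. Beforehand, cells seeded at 4×10^4/well received test compound (1% DMSO) for 1 h at 37 °C, followed by 24 h TNF-α (100 ng/ml) stimulation.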
Take `N#Cc1c(C2CCCNC2)cc(-c2c(O)cccc2OCC(=O)c2ccccc2)nc1N` (stereo not drawn) [Example 2-51]: the IC50 is less than 1000 nM.
Then `CCOc1cccc(O)c1-c1cc(C2CCCNC2)c(C#N)c(N)n1` (stereo not drawn) [Example 2-58], with less than 1000 nM; and `Nc1nc(-c2c(O)cccc2OCC2CC2)cc(C2CCCNC2)c1CNC(=S)Nc1ccccc1` (stereo not drawn) [Example 23-15], with less than 1000 nM.
Take `CC(C)(C)COC(=O)N1Cc2c(C3CCCNC3)cc(-c3c(O)cccc3OCC3CC3)nc2NC1=O` (stereo not drawn) [Example 24-07]: the IC50 was less than 1000 nM.
Then `N#Cc1c(C2CCCNC2)cc(-c2c(O)cccc2OCc2ccc(Br)cc2)nc1N` (stereo not drawn) [Example 2-24], with less than 1000 nM.
For `N#Cc1c(C2CCCNC2)cc(-c2c(O)cccc2OCc2cccc3ccccc23)nc1N` (stereo not drawn) [Example 2-32], the IC50 was in the range of 1000 to 10000 nM.

Source of the values: US6984649B1, “Pyridine derivatives” (Bayer Aktiengesellschaft, priority 2000, dated 2006).
